# Data reported in article PMC4306533, “Distinct Features of Cap Binding by eIF4E1b Proteins” (Journal of Molecular Biology, 2015).
# Assays:
# XeIF4E1a [1] = target: T1, XeIF4E1a (Xenopus laevis, UniProt P48597); test: time-synchronized fluorescence titration of cap analogue binding; details: for ΔΔG^o + glycerol XeIF4E1a / ΔΔG^o − glycerol XeIF4E1a: change relative to m^7GTP; for ΔΔG^o + glycerol XeIF4E1a / Kas + glycerol XeIF4E1a: 10% glycerol; for ΔΔG^o − glycerol XeIF4E1a: without glycerol; for Kas + glycerol XeIF4E1a / Kas − glycerol XeIF4E1a: equilibrium association constant; for Kas − glycerol XeIF4E1a: buffer without glycerol
# T1 construct: made in house; host or cells: E. coli Rosetta2(DE3)
# Source text: (§1) The time-synchronized fluorescence titration method, widely used to determine the affinity constants of cap–eIF4E complexes [[20,22–26]], measures the quenching of the intrinsic fluorescence of tryptophan residues due to cap binding (Fig. S2). Knowledge of the equilibrium association constant Kas enables the calculation of the free-energy changes involved in the interaction between eIF4E and ligand, according to the standard equation ΔG° = − RTlnKas.
# (§2) For human eIF4E1a and eIF4E1b and also for Xenopus eIF4E1a and its mutated forms, measurements were carried out using 0.1 μM protein in 50 mM Hepes/KOH (pH 7.2), 134.5 mM KCl, 0.5 mM EDTA and 1 mM DTT. For Xenopus eIF4E1b(ΔN27), the concentration was 0.2 μM and glycerol was added to the buffer to 10% (v/v) final concentration. […] Fluorescence of measured samples was excited at 280 nm (2.5 nm bandwidth) and detected at 337 nm or 330 nm (4 nm bandwidth), thus reducing the signal originated from the free cap analogues. Measurements were carried out on a LS-55 spectrofluorometer (Perkin Elmer Co.) using freshly prepared proteins, and the fluorescence intensities were corrected for sample dilution and the inner filter effect.
# (§3) Equilibrium association constants (Kas) were determined by fitting the theoretical dependence of fluorescence intensity on the total concentration of the cap analogue to the experimental data points, according to the equation described previously (see Ref. [22] and Fig. S2c).
# (§4) The final Kas was calculated as a weighted average of 2–6 independent titrations with the weights taken as the reciprocal of the numerical standard deviation squared. Numerical, nonlinear least-squares regression analysis was performed using Origin 6.0 (Microcal Software Inc.). Obtained association constants were used to determine the Gibbs free energy according to the standard equation ΔG° = − RTlnKas.
# XeIF4E1a [2] = test: as above; parameters: species or system Xenopus laevis; details: without glycerol
# Source text: as §1, §2, §3, §4
# heIF4E1a [3] = target: T2, heIF4E1a (Homo sapiens, UniProt P06730); test: as above; details: change relative to m^7GTP; without glycerol
# T2 construct: made in house; host or cells: E. coli Rosetta2(DE3)
# Source text: as §1, §2, §3, §4
# heIF4E1b [4] = target: T3, heIF4E1b (Homo sapiens, UniProt A6NMX2); test: as above; details: for ΔΔG^o − glycerol heIF4E1b: change relative to m^7GTP, without glycerol; for Kas − glycerol heIF4E1b: equilibrium association constant, buffer without glycerol
# T3 construct: made in house; host or cells: E. coli Rosetta2(DE3)
# T3 sequence (A6NMX2 1-242): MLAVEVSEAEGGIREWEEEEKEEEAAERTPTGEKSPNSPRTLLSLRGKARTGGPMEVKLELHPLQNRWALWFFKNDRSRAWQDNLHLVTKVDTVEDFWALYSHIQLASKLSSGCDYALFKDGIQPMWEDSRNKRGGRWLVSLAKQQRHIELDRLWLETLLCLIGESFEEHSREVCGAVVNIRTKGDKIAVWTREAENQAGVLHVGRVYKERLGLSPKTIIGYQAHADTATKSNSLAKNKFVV
# Source text: as §1, §2, §3, §4
# heIF4E1b [5] = test: as above; parameters: species or system human; details: without glycerol
# Source text: as §1, §2, §3, §4
# XeIF4E1bΔN27 = test: as above; parameters: species or system Xenopus laevis; details: 10% glycerol; for ΔΔG^o + glycerol XeIF4E1bΔN27: change relative to m^7GTP; for Kas + glycerol XeIF4E1bΔN27: equilibrium association constant
# Source text: as §1, §2, §3, §4
# [6] = target: T4, X4E1a3 (E101S/K102R/S195A) (Xenopus laevis, UniProt P48597, E101S/K102R/S195A); test: fluorescence titration, XeIF4E1a mutant; type: binding; details: mutant (E101S/K102R/S195A) of XeIF4E1a
# T4 construct: made in house; host or cells: E. coli Rosetta2(DE3)
# Source text: (§5) We tested the effect on cap-binding activity of these positions in the fluorescence assay with six mutated recombinant versions of Xenopus eIF4E1a (Fig. S4). The amino acids were introduced in XeIF4E1a sequentially in the order: E101S/K102R/S195A/M82S/T206L/T207S (numbering of the XeIF4E1a sequence is shifted backward by 4 amino acids relative to XeIF4E1b). […] The biggest contribution to the weaker cap binding of XeIF4E1a, in each case about 20%, resulted from changing Glu101 to Ser and Thr206 to Leu coupled with Thr207 to Ser, with the remaining mutations having only minor effects. […] Glu101 is a solvent-accessible amino acid and is proximal to Trp98 in the S3-S4 loop. […] Attenuation of the cap-binding affinity of XeIF4E1a resulting from mutating Thr206 and Thr207 is consistent with our results mentioned above showing significant influence of C-terminal loop residues on binding phosphate and the second nucleotide.
# (§6) For human eIF4E1a and eIF4E1b and also for Xenopus eIF4E1a and its mutated forms, measurements were carried out using 0.1 μM protein in 50 mM Hepes/KOH (pH 7.2), 134.5 mM KCl, 0.5 mM EDTA and 1 mM DTT. For Xenopus eIF4E1b(ΔN27), the concentration was 0.2 μM and glycerol was added to the buffer to 10% (v/v) final concentration. […] The gradually increasing concentration of cap analogue quenches protein fluorescence without shifting the spectrum maximum, while at high concentrations, the fluorescence signal of free cap analogue dominates over the fluorescence from other solution components including free eIF4E and eIF4E in complex with cap (Fig. S2a). Fluorescence of measured samples was excited at 280 nm (2.5 nm bandwidth) and detected at 337 nm or 330 nm (4 nm bandwidth), thus reducing the signal originated from the free cap analogues. Measurements were carried out on a LS-55 spectrofluorometer (Perkin Elmer Co.) using freshly prepared proteins, and the fluorescence intensities were corrected for sample dilution and the inner filter effect.
# (§7) Equilibrium association constants (Kas) were determined by fitting the theoretical dependence of fluorescence intensity on the total concentration of the cap analogue to the experimental data points, according to the equation described previously (see Ref. [22] and Fig. S2c). […] Along with Kas and the concentration of the active protein [P0^act], other parameters such as fL and ∆f = fPact − fPL are also gained from the fit, where fL represents the fluorescence efficiency of free cap analogue and ∆f represents the difference between the fluorescence efficiencies of the apo-protein and the complex (Fig. S2c).
# as §4
# [7] = target: T5, X4E1a4 (E101S/K102R/S195A/M82S) (Xenopus laevis, UniProt P48597, E101S/K102R/M82S/S195A); test: fluorescence titration, XeIF4E1a mutant; type: binding; details: mutant (E101S/K102R/S195A/M82S) of XeIF4E1a
# T5 construct: made in house; host or cells: E. coli Rosetta2(DE3)
# Source text: as §5, §6, §7, §4
# [8] = target: T6, X4E1a6 (E101S/K102R/S195A/M82S/T206L/T207S) (Xenopus laevis, UniProt P48597, E101S/K102R/M82S/S195A/T206L/T207S); test: fluorescence titration, XeIF4E1a mutant; type: binding; details: mutant (E101S/K102R/S195A/M82S/T206L/T207S) of XeIF4E1a
# T6 construct: made in house; host or cells: E. coli Rosetta2(DE3)
# Source text: as §5, §6, §7, §4
# heIF4E1a [9] = target: T2, heIF4E1a; parameters: method as in PMID 17369309; details: equilibrium association constant; buffer without glycerol; footnote b; cited from earlier work
# X4E1a1 (E101S) = target: T7, X4E1a1 (E101S) (Xenopus laevis, UniProt P48597, E101S); test: fluorescence titration, XeIF4E1a mutant; type: binding; details: mutant (E101S) of XeIF4E1a
# T7 construct: made in house; host or cells: E. coli Rosetta2(DE3)
# Source text: as §5, §6, §7, §4
# X4E1a1’ (K102R) = target: T8, X4E1a1’ (K102R) (Xenopus laevis, UniProt P48597, K102R); test: fluorescence titration, XeIF4E1a mutant; type: binding; details: mutant (K102R) of XeIF4E1a
# T8 construct: made in house; host or cells: E. coli Rosetta2(DE3)
# Source text: as §5, §6, §7, §4
# X4E1a2 (E101S/K102R) = target: T9, X4E1a2 (E101S/K102R) (Xenopus laevis, UniProt P48597, E101S/K102R); test: fluorescence titration, XeIF4E1a mutant; type: binding; details: mutant (E101S/K102R) of XeIF4E1a
# T9 construct: made in house; host or cells: E. coli Rosetta2(DE3)
# Source text: as §5, §6, §7, §4
# in vitro translation = tested on: in vitro translation; parameters: method as in PMID 10387101; details: Cai et al.; read-out: IC50 (inhibitory potency); cited from earlier work
# T2 sequence (P06730 whole entry): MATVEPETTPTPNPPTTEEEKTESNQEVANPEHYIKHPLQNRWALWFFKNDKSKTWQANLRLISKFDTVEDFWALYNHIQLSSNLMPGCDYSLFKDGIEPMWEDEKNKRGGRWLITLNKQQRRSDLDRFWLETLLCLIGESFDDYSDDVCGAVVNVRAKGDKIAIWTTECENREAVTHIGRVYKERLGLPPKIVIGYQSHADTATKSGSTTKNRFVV
# T1 sequence (P48597 whole entry): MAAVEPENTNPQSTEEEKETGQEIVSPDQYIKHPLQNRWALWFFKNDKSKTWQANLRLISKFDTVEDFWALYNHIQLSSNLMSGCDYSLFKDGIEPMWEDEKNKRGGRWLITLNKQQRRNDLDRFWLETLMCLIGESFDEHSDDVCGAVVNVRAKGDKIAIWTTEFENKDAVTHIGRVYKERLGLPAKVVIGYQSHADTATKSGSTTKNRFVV
# T6 sequence (P48597 whole entry M82S/E101S/K102R/S195A/T206L/T207S): as the sequence (P48597 whole entry) above, with M82S, E101S, K102R, S195A, T206L, T207S counted along it
# T5 sequence (P48597 whole entry M82S/E101S/K102R/S195A): as the sequence (P48597 whole entry) above, with M82S, E101S, K102R, S195A counted along it
# T4 sequence (P48597 whole entry E101S/K102R/S195A): as the sequence (P48597 whole entry) above, with E101S, K102R, S195A counted along it
# T7 sequence (P48597 whole entry E101S): as the sequence (P48597 whole entry) above, with E101S counted along it
# T9 sequence (P48597 whole entry E101S/K102R): as the sequence (P48597 whole entry) above, with E101S, K102R counted along it
# T8 sequence (P48597 whole entry K102R): as the sequence (P48597 whole entry) above, with K102R counted along it
SMILES,ΔΔG^o + glycerol XeIF4E1a (XeIF4E1a [1]) [kcal/mol],ΔΔG^o − glycerol XeIF4E1a (XeIF4E1a [1]) [kcal/mol],Kas + glycerol XeIF4E1a (XeIF4E1a [1]) [μM^− 1],Kas − glycerol XeIF4E1a (XeIF4E1a [1]) [μM^− 1],Ratio Kas (h4E1a) to Kas (X4E1a) (XeIF4E1a [2]),ΔΔG^o − glycerol heIF4E1a (heIF4E1a [3]) [kcal/mol],ΔΔG^o − glycerol heIF4E1b (heIF4E1b [4]) [kcal/mol],Kas − glycerol heIF4E1b (heIF4E1b [4]) [μM^− 1],Ratio Kas (h4E1a) to Kas (h4E1b) (heIF4E1b [5]),Ratio Kas (X4E1a) to Kas (X4E1bΔN27) (XeIF4E1bΔN27),ΔΔG^o + glycerol XeIF4E1bΔN27 (XeIF4E1bΔN27) [kcal/mol],Kas + glycerol XeIF4E1bΔN27 (XeIF4E1bΔN27) [μM^− 1],Kas X4E1a3 [6] [µM⁻¹],Kas X4E1a4 [7] [µM⁻¹],Kas X4E1a6 [8] [µM⁻¹],Kas − glycerol heIF4E1a (heIF4E1a [9]),Kas X4E1a1 (X4E1a1 (E101S)) [µM⁻¹],Kas X4E1a1’ (X4E1a1’ (K102R)) [µM⁻¹],Kas X4E1a2 (X4E1a2 (E101S/K102R)) [µM⁻¹],IC50 (in vitro translation) [µM]
Cn1c[n+]([C@@H]2O[C@H](COP(=O)(O)OP(=O)(O)OP(=O)(O)OC[C@H]3O[C@@H](n4cnc5c(N)ncnc54)[C@H](O)[C@@H]3O)[C@@H](O)[C@H]2O)c2nc(N)[nH]c(=O)c21 [m^7GpppA],1.717 ± 0.033,1.779 ± 0.029,1.22 ± 0.053,2.015 ± 0.028,1.97,1.658 ± 0.053,1.352 ± 0.039,2.158 ± 0.053,1.84,1.99,1.479 ± 0.050,0.615 ± 0.042,1.57 ± 0.21,1.48 ± 0.11,1.33 ± 0.11,3.97 ± 0.21 ^b μM^− 1,–,–,–,–
Cn1c[n+]([C@@H]2O[C@H](COP(=O)(O)OP(=O)([O-])OP(=O)(O)OC[C@H]3O[C@@H](n4cnc5c(=O)[nH]c(N)nc54)[C@H](O)[C@@H]3O)[C@@H](O)[C@H]2O)c2nc(N)[nH]c(=O)c21 [m^7GpppG],1.351 ± 0.028,1.382 ± 0.032,2.291 ± 0.065,3.98 ± 0.11,1.49,1.423 ± 0.058,1.065 ± 0.040,3.53 ± 0.11,1.68,2.59,1.268 ± 0.037,0.883 ± 0.032,2.417 ± 0.051,2.87 ± 0.11,2.54 ± 0.15,5.94 ± 0.39 ^b μM^− 1,3.38 ± 0.16,3.341 ± 0.090,2.81 ± 0.10,–
Nc1nc2c(c(=O)[nH]1)n(Cc1ccc(Cl)cc1)c[n+]2[C@@H]1O[C@H](COP(=O)([O-])OP(=O)(O)O)[C@@H](O)[C@H]1O [p-Cl-bn^7GDP],–,–,–,–,–,–,–,–,–,–,–,–,–,–,–,–,–,–,–,6.76
Nc1nc2c(c(=O)[nH]1)[n+](Cc1ccc(Cl)cc1)cn2[C@@H]1O[C@H](COP(=O)([O-])O)[C@@H](O)[C@H]1O [p-Cl-bn^7GMP],–,–,–,–,–,–,–,–,–,–,–,–,–,–,–,–,–,–,–,51
